Data from article PMC9415896, “Total Synthesis of the Antimycobacterial Natural Product Chlorflavonin and Analogs via a Late-Stage Ruthenium(II)-Catalyzed ortho-C(sp^2)-H-Hydroxylation” (Pharmaceuticals, 2022).
Values after ≈ are worked out from the molar mass of the structure shown.

Legend:
Mtb = test system: Mtb; parameters: method as in PMID 9818746; settings: Mtb-infected mice; cited from earlier work
[1] = not given; remark: listed apart in the source
[2] = Chemical stability in phosphate buffer (HPLC-UV); format: physicochemical
Description: Stability testing was performed in phosphate buffer pH 2.0 and 7.4 (prepared according to Ph. Eur. 10) at 20 °C over a period of 48 h. Therefore, 0.4 mg of substance was dissolved in Tween® 20 und ethanol (7/3 v/v) and diluted with the respective phosphate buffer. The solution was shaken with an IKA KS 260 basic (250 min^−1) at 25 °C for 48 h. Analysis was performed after 1, 3, 6, 24, and 48 h by comparing the area under the curve (A.U.C.), which was measured with HPLC-UV at 254 nm (n = 1).

M. tuberculosis H37Rv [3] = assay: Minimal inhibitory concentration (MIC) resazurin assay; format: cell-based, Mycobacterium tuberculosis
[4] = test system: human cell lines MRC-5, HEK-293, THP-1; format: cell-based
Description: For the determination of the cytotoxicity of the compounds, different human cell lines were used. The human fetal lung fibroblast cell line MRC-5 (American Type Culture Collection) was incubated in Eagle’s Minimum Essential Medium (EMEM) containing 1% (v/v) Na-pyruvate, whereas the human embryonic kidney cell line HEK-293 (CLS Cell Lines Service GmbH) was cultivated in EMEM supplemented with 2 mM L-glutamine, 1% (v/v) non-essential amino acids, and 1 mM sodium pyruvate. The human monocyte cell line THP-1 (Deutsche Sammlung von Mikroogranismen und Zellkulturen GmbH) was cultured in RPMI 1640 medium. All media were supplemented with 10% (v/v) heat-inactivated fetal bovine serum (FBS).
The cell densities were quantified using a hemocytometer and then adjusted to 10^6 cells/mL. Next, 100 µL per well were seeded in 96-well microtiter plates to yield an inoculation cell density of […] cells per well. Compounds were added employing two-fold serial dilutions resulting in final concentrations ranging from 100 to 0.78 µM. Cells were incubated for two days at 37 °C and 5% CO2 in a humidified atmosphere. […] Fluorescence was measured in a TECAN microplate reader (excitation of 540 nm, emission of 590 nm). The percentage of growth was calculated with respect to DMSO (100% growth) and Triton X-100 (0% growth) controls.

[5] = Single-point metabolic stability in human liver microsomes; format: in vitro ADME
Description: The metabolic stability assay was performed in Human Liver Microsomes (HLM) using a single-point metabolic stability assay. Briefly, the compounds were incubated at 1 μM in 0.4 mg/mL human mixed-gender liver microsomes (Xenotech, Kansas City, KS, USA, pool of 50) for 30 min at 37 °C. Reactions were quenched by adding ice-cold acetonitrile containing internal standard. The samples were then centrifuged and analyzed by LC-MS/MS for the disappearance of the parent compound. Half-life, clearance, and hepatic […] ratios were determined using standard equations [47, 48]. Propranolol and midazolam were used as positive controls and treated similarly.

physchem [6] = assay: physchem
M. tuberculosis H37Rv [7] = test system: M. tuberculosis H37Rv; parameters: method as in Rehberg et al. [14]; settings: ref Rehberg et al. [14], cited from earlier work
physchem [8] = settings: pH 7.4
[9] = test system: Mtb XDR clinical isolates; settings: ref Rehberg et al. [14]; cited from earlier work
monocyte cell line THP-1 = settings: ref Rehberg et al. [14]; cited from earlier work
[10] = test system: human fetal lung fibroblast cell line MRC-5; settings: ref Rehberg et al. [14]; cited from earlier work

## COc1cc(O)c2c(=O)c(OC)c(-c3cccc(F)c3O)oc2c1OC [Compound 1b]
other
  melting point: 208.6 °C

## COc1cc(O)c2c(=O)c(OC)c(-c3ccc(Cl)cc3O)oc2c1OC
other
  melting point: 240.7 °C

## COc1cc(O)c2c(=O)c(OC)c(-c3cccc(Br)c3OC(F)F)oc2c1OC
other
  melting point: 162.4 °C

## COc1cc(O)c2c(=O)c(OC)c(-c3cccc(Br)c3O)oc2c1OC [Compound 1a]
other
  melting point: 210.2 °C

## COC(=O)c1ccccc1S(=O)(=O)NC(=O)Nc1nc(C)cc(C)n1 [sulfometuron methyl]
Mtb
  proliferation of the pathogen in the host's lungs: significantly reduced proliferation

## COc1cc(O)c2c(=O)c(OC)c(-c3cccc(Cl)c3)oc2c1OC
other
  melting point: 188.3 °C

## COc1cc(O)c2c(=O)c(OC)c(-c3cccc(C)c3O)oc2c1OC
other
  melting point: 213.3 °C

## COc1cc(O)c2c(=O)c(OC)c(-c3cccc(Br)c3O)oc2c1OC [BF, bromflavonin]
[1]
  Water solubility at pH 7.4: <5 μM
[2]; phosphate buffer pH 2.0, 48 h
  drug content after 48 h: 99%
[2]; phosphate buffer pH 7.4, 48 h
  drug content after 48 h: 99%
M. tuberculosis H37Rv [3]
  Minimal Inhibitory Concentrations (MIC90): 0.78 μm
M. tuberculosis H37Rv [3]; Mtb H37Rv, in words
  antimycobacterial activity: submicromolar
[4]
  cytotoxicity toward human cells: no cytotoxicity
[5]
  CLint, app (predicted in vivo intrinsic clearance): 53.4

## COc1cc(O)c2c(=O)c(OC)c(-c3cccc(Cl)c3Cl)oc2c1OC
other
  melting point: 184.8 °C

## COc1cc(O)c2c(=O)c(OC)c(-c3cccc(I)c3O)oc2c1OC [Compound 1c]
other
  melting point: 223.4 °C

## COc1cc(O)c2c(=O)c(OC)c(-c3cccc(Br)c3F)oc2c1OC [Compound 1f]
other
  melting point: 217.4 °C

## COc1cc(O)c2c(=O)c(OC)c(-c3cc(F)cc(Br)c3O)oc2c1OC [Compound 1i]
other
  melting point: 251.4 °C

## COc1cc(O)c2c(=O)c(OC)c(-c3cccc(C(F)(F)F)c3O)oc2c1OC [Compound 1d]
other
  melting point: 195.4 °C

## COc1cc(O)c2c(=O)c(OC)c(-c3ccc(Cl)c(O)c3)oc2c1OC
other
  melting point: 48 °C

## COc1cc(O)c2c(=O)c(OC)c(-c3cccc(Cl)c3O)oc2c1OC [CF, chlorflavonin]
Physchem [6]; pKa1 (2′-OH)
  pKa: 6.8 ± 0.07
Physchem [6]; pKa2 (5-OH)
  pKa: 10.4
M. tuberculosis H37Rv [7]; mono treatment with CF
  effect of mono treatment: bacteriostatic effect
M. tuberculosis H37Rv [7]; virulent Mtb H37Rv, in vitro growth inhibition
  MIC90: 1.56 µM (≈ 0.591 µg/mL)
M. tuberculosis H37Rv [7]; with delamanid and isoniazid, including intracellular activity against infected human macrophages
  combination effect: synergistic efficacy
[2]; phosphate buffer pH 2.0, 48 h
  drug content after 48 h: 99%
[2]; phosphate buffer pH 7.4, 48 h
  drug content after 48 h: 99%
other
  melting point: 213.7 °C
Physchem [8]
  solubility at 24 h: < 5 µM
[9]
  in vitro growth inhibition: strong in vitro growth inhibition
Monocyte cell line THP-1
  cytotoxicity: no cytotoxicity
[10]
  cytotoxicity: no cytotoxicity
[5]; 1 μM, human liver microsomes 0.4 mg/mL, 30 min, 37 °C
  remaining after 30 min: 48%

## COc1cc(O)c2c(=O)c(OC)c(-c3cc(F)cc(Cl)c3O)oc2c1OC
other
  melting point: 245 °C
